Laboratory results published in patent US20240208953A1, “"Cyclopenta[c]pyrrol Negative Allosteric Modulators of NR2B"” (Novartis AG, priority 2021, published 2024).

Assays:
hERG = hERG (Homo sapiens (Human), UniProt Q12809); test: hERG Qpatch assay; format: cell-based
Protocol: Example 3. hERG Qpatch Assay Protocol
This assay was performed by the method described in Skepper et al., J. Med. Chem. 2020, 63, 7773-7816:
hERG expressing cell lines were produced in-house at Novartis using CHO-K1 T-Rex inducible plasmid system (Invitrogen) as described previously (Cao et al., Assay Drug Dev. Technol. 2010, 8, 766-780). Cell lines were maintained in Ham's F12 nutrient mixture containing 10% FBS, blasticidin ([…]; InvivoGen), hygromycin B ([…]; InvivoGen), Zeocin ([…], Invitrogen), and neomycin ([…], Invitrogen) using SelecT automated cell culture system (TAP Biosystems, Cambridge, U.K.). hERG and hCav1.2 channels expression was induced with tetracycline (0.25-1 μg/mL, Invitrogen) at least 24 h prior to the experiment.
hERG currents were recorded using the Qpatch automated patch clamp systems (Sophion Bioscience Inc., North Brunswick, NJ) in the whole (single) cell configuration. hERG expressing CHO-K1 cells were harvested with Detachin (Genlantis) and stored in the modified serum-free SFM-2 media (Life Technologies) at room temperature. The extracellular solution contained (in mM) NaCl (145), KCl (4), MgCl2 (1), CaCl2 (2), and HEPES (10), pH 7.4, with NaOH. The intracellular solution contained KCl (135), MgCl2 (1.75), CaCl2 (5.4), EGTA (10), K2-ATP (4), and HEPES (10), pH 7.2, with KOH. After whole cell configuration was achieved, the cell was held at −90 mV, and a 0.1 s pulse to −50 mV was delivered to measure the leaking current, which was subtracted from the tail current online. Then the cell was depolarized to +20 mV for 4 s (prepulse), followed by a 4 s test pulse to −50 mV to reveal the hERG tail current. To monitor changes in the current amplitude, this voltage protocol was repeatedly applied every 20 s. Test compounds were first diluted in DMSO for six dose-response experiments and then dissolved in the extracellular solution using Freedom EVO liquid handling robotic system (Tecan, Männedorf, Switzerland). The final DMSO concentration in samples was 0.3% v/v. Amitriptyline (Sigma) was tested as a positive control. Data were analyzed using in-house developed MatLab-based program (MathWorks, Natick, MA

P-glycoprotein (P-gp) = P-glycoprotein (P-gp) (Homo sapiens (Human), UniProt P08183); test: MDCK-MDR1 permeability / efflux assay; format: in vitro ADME; settings: dog, MDCK-MDR1, pH 7.4, efflux ratio, read-out: MDCK-MDR1 ER
Chain of P-glycoprotein (P-gp) (P08183 whole entry): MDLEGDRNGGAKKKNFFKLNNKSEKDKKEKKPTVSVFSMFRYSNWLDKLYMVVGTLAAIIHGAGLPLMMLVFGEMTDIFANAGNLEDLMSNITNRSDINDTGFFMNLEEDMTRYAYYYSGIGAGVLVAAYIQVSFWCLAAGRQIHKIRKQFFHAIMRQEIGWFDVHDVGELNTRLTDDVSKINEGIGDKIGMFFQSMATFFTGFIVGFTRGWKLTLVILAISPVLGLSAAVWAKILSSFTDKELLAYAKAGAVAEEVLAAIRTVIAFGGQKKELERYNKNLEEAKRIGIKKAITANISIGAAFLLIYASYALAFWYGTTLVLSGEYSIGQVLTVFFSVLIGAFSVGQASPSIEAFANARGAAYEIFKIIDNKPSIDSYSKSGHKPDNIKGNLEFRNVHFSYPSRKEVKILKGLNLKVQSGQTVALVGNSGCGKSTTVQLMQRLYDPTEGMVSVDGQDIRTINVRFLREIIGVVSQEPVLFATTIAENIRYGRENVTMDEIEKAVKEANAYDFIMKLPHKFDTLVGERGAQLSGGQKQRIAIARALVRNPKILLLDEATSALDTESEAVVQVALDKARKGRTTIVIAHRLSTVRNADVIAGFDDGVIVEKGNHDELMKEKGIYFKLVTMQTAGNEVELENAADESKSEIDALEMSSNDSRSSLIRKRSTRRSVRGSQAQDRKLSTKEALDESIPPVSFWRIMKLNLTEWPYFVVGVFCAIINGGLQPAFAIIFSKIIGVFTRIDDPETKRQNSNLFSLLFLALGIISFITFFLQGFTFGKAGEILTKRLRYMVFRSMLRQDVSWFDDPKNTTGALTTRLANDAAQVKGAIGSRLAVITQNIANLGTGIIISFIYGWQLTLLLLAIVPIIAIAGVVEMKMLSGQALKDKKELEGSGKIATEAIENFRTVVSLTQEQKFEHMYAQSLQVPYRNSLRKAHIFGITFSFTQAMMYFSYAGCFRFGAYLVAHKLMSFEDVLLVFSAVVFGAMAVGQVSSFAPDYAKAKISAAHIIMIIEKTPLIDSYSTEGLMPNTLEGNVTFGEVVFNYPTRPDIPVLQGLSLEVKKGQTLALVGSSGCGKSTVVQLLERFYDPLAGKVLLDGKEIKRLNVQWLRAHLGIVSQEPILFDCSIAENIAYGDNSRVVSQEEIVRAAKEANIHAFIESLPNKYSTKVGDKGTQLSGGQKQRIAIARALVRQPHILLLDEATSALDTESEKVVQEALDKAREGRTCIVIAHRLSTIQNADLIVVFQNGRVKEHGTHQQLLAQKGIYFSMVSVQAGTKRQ
Procedure, shortened: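 MDCK-MDR1 monolayers grown 4 days on Transwells; 10 μM compound in HBSS/10 mM HEPES pH 7.4 with 0.02% BSA, run A→B and B→A for 120 min at 37 °C without shaking. Donor and receiver concentrations by LC-MS/MS; Papp and recovery calculated, efflux ratio from B→A vs A→B.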

NR2B = NR2B (Rattus norvegicus (Rat), UniProt Q00960); test: NR2B rat cortical neuron calcium influx assay; format: cell-based; settings: for IC50: rat cortical neurons, glutamate and glycine stimulated calcium influx
Chain of NR2B (Q00960 27-1482, other chains not shown): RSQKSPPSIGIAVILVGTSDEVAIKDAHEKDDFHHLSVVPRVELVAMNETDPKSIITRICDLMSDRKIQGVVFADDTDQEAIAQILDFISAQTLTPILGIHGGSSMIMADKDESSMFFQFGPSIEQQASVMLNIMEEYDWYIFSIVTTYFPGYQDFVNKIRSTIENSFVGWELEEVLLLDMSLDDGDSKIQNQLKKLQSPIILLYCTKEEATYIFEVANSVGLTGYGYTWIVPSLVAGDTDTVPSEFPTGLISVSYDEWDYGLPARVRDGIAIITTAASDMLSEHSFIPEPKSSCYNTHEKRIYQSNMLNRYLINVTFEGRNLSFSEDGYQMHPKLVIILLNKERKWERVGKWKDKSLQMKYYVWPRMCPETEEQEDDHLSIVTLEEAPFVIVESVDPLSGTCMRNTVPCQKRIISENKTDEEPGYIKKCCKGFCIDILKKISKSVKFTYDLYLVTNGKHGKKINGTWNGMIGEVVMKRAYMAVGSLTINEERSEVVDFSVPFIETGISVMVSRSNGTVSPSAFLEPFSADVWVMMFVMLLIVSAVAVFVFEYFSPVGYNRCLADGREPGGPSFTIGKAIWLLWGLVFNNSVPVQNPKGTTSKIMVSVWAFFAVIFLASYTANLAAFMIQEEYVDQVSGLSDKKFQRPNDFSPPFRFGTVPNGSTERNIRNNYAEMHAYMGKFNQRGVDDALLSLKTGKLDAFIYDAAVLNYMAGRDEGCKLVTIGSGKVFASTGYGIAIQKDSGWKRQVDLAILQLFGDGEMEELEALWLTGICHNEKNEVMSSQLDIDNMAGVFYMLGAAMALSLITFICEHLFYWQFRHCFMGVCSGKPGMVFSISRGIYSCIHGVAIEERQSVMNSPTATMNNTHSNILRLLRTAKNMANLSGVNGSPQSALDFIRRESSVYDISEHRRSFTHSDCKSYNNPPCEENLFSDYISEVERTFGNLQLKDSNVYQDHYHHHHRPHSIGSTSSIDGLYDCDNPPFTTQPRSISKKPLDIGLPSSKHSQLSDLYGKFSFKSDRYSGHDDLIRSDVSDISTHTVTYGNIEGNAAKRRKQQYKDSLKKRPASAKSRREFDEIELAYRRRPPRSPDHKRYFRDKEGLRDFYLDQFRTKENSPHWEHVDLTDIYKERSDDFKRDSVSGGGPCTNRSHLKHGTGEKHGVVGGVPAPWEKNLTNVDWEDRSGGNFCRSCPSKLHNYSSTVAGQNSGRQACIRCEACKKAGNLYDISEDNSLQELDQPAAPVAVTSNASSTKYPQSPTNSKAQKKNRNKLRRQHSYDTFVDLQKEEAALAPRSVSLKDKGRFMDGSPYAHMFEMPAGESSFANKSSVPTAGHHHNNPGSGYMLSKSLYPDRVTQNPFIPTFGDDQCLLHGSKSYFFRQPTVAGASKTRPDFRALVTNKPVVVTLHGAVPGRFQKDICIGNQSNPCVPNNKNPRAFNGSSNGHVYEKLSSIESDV
Procedure, shortened: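 Primary cortical neurons from E18 Sprague Dawley rat embryos, cultured 2 days, were loaded with Calcium 6 dye in 1.8 mM Ca-HBSS and preincubated with compound 2 h at 37° C. Glutamate plus glycine was added and fluorescence read for 2 min as peak/baseline ratio; duplicate dose-response curves gave IC50 (μM) and maximal inhibition.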

[1] = Table 2, hERG expressing CHO-K1 cells

Chain of hERG (Q12809 whole entry): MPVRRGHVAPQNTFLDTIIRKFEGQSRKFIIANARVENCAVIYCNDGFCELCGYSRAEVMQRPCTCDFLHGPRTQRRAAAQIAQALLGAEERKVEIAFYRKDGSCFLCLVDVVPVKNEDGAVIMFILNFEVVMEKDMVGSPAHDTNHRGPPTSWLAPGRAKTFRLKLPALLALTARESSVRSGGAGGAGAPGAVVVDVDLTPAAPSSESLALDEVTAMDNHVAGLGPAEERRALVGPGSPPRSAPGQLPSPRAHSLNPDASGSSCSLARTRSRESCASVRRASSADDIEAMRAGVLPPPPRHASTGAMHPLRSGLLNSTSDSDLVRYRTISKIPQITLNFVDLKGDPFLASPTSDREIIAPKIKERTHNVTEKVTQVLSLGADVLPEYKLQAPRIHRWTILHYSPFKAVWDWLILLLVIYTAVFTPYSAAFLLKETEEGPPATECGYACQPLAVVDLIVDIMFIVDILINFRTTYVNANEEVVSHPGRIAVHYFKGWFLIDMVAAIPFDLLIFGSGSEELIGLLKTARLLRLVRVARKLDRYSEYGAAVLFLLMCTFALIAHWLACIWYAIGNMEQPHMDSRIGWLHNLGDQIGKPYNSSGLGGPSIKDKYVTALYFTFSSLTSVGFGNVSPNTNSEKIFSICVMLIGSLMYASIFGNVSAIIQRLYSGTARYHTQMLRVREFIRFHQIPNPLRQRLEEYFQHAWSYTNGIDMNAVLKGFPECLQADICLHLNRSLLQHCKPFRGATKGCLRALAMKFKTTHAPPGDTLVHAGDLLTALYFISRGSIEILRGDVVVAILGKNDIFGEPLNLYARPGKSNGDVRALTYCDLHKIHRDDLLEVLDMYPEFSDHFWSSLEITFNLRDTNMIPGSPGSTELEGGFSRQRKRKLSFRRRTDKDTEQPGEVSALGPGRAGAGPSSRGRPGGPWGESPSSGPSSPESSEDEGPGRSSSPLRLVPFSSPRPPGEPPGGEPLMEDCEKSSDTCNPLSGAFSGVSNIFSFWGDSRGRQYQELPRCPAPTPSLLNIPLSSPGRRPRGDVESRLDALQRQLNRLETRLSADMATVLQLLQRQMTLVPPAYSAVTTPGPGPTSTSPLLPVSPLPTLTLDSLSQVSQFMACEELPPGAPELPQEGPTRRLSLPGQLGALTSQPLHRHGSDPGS

Compound | IC50 (hERG; [1]) [nM] | efflux ratio at 120 min, 10 μM (P-glycoprotein (P-gp)) | IC50 (NR2B) [nM] | IC50 (hERG; Table 3, matched pairs) [nM] | relative potency in the NR2B rat cortical neuron calcium influx assay (NR2B; comparison within Examples 5A/5B/5C/5D)
O=c1[nH]c2c(F)cc([C@H](O)CN3C[C@H]4C[C@H](Oc5ccccc5)C[C@@]4(O)C3)cc2s1 (single isomer, unassigned) [Example 42B] | 800 | 0.9 | 0.04 |  | 
O=C1CCc2cc(C(O)CN3CC4CC(Oc5ccccc5F)CC4(O)C3)ccc2N1 (stereo in doubt) [Example 5C, 6-((R)-2-((3aR,5R,6aS)-5-(2-fluorophenoxy)-3a-hydroxyhexahydrocyclopenta[c]pyrrol-2(1H)-yl)-1-hydroxyethyl)-3,4-dihydroquinolin-2(1H)-one] | 6000 | 2.07 | 0.59 | 6000 | more potent than Examples 5A and 5B
O=C1Nc2ccc([C@@H](O)CN3C[C@H]4C[C@H](Oc5ccccc5)C[C@@]4(O)C3)cc2CO1 (single isomer, unassigned) [Example 28A] | 2400 | 3.32 | 0.83 |  | 
O=C1Nc2c(F)cc([C@@H](O)CN3C[C@H]4C[C@H](Oc5ccccc5)C[C@@]4(O)C3)cc2CO1 (single isomer, unassigned) [Example 33A] | 8200 | 1.87 | 4.9 |  | 
O=C1Nc2c(F)cc([C@H](O)CN3C[C@H]4C[C@H](Oc5ccccc5)C[C@@]4(O)C3)cc2CO1 (single isomer, unassigned) [Example 33B] | 4900 | 0.91 | 3.6 |  | 
O=C1CCc2cc([C@@H](O)CN3C[C@H]4C[C@H](Oc5ccccc5)C[C@@]4(O)C3)c(F)cc2N1 (single isomer, unassigned) [Example 10A] | 2100 | 1.11 | 0.41 |  | 
O=C1Nc2ccc([C@H](O)CN3C[C@H]4C[C@H](Oc5ccccc5)C[C@@]4(O)C3)cc2CS1 (single isomer, unassigned) [Example 14B] | 1300 | 2.06 | 0.18 |  | 
O=c1[nH]c2c(F)cc([C@@H](O)CN3C[C@H]4C[C@H](Oc5ccccc5)C[C@@]4(O)C3)cc2s1 (single isomer, unassigned) [Example 42A] | 2200 | 0.93 | 0.19 |  | 
O=c1[nH]c2ccc([C@@H](O)CN3C[C@H]4C[C@H](Oc5ccccc5)C[C@@]4(O)C3)cc2s1 (single isomer, unassigned) [Example 17A] | 200 | 1.11 | 0.013 |  | 
O=C1CCc2cc([C@@H](O)CN3C[C@@H]4C[C@@H](Oc5cccc(F)c5F)C[C@]4(O)C3)ccc2N1 (single isomer, unassigned) [Example 24C] | 1200 | 1.46 | 0.021 |  | 
